Measurements published in US20240109865A1, “INDAZOLE COMPOUNDS AS KINASE INHIBITORS” (TYRA BIOSCIENCES, INC., priority 2020, published 2024).
Like-named read-outs stand apart in the source and are kept apart here.

Assays:
[1] = system: RT112/84 cells (FGFR3-fusion); test: RT112/84 cancer cell line cell viability assay (CellTiter-Glo 2.0); format: cell-based; conditions: Homo sapiens, 72 hours, Cell Titer Glo 2.0
Description: (§1) Experimental Purpose: To detect the change of intracellular ATP by Cell Titer-Glo® and to evaluate the inhibitory effect of the compounds on cancer cell lines by determining the in vitro IC50 value of the compounds.
(§2) Cell Titer-Glo® 2.0 Luminescent cell viability assay reagent was purchased from Promega (Madison, WI). RT112/84 and KG-1 cell lines were purchased from American Type Culture Collection (Manassas, VA). UM-UC-14 cell line was purchased from Sigma (St. Louis, MO). RT112/84, UM-UC-14, and KG-1 cells were cultured in RPMI1640 media supplemented with 10% fetal bovine serum. Cultures were maintained at 37° C. in a humidified atmosphere of 5% C02 and 95% air.
(§3) Cell Viability Assay Procedure: Cells were plated in 96-well clear bottom/white plates (Corning #3903) at 10,000 cells/well in 100 μl of media, incubated overnight. The next day, test compound DMSO stock solutions were made at 10 mM and 2 μM final concentration. Compounds were then added to cells in a 9-dose, 10-fold dilution series starting at 30 μM with an HP 300e Digital Dispenser (each dose was applied in triplicate). DMSO was backfilled to each well up to 301 nL total volume of test compound+DMSO, and a total of 301 nL DMSO was added to a control/no test compound well in triplicate. The cells in cell culture plates were incubated with the compounds at 37° C. and 5% C02 for 72 hours. Then 50 μl of Cell Titer Glo 2.0 reagent was added to each well of the cell culture plates. The contents were covered from light and mixed on an orbital shaker at room temperature for 10 min. Luminescence was recorded by a Synergy H1 Microplate Reader (Biotek, Winooski, VT). Cells were assessed as a percentage of DMSO only treated control cells. Curves were plotted and IC50 values were calculated using the GraphPad Prism 8 program based on a sigmoidal dose-response equation (4 parameter).

[2] = system: KG-1 cells (FGFR1-fusion); test: KG-1 cancer cell line cell viability assay (CellTiter-Glo 2.0); format: cell-based; conditions: Homo sapiens, 72 hours, Cell Titer Glo 2.0
Description: as §1, §2, §3

[3] = molecular target: FGFR3-BAIAP2L1 Ba/F3 cells (Homo sapiens, UniProt P22607); test: Ba/F3 cell viability assay (CellTiter-Glo 2.0), FGFR3-BAIAP2L1 Ba/F3; format: cell-based; conditions: for Ba/F3 FGFR1/FGFR3 Selectivity: FGFR3 > FGFR1 selectivity ratio in Ba/F3 FGFR fusion cell based assays; for IC50: read-out: Ba/F3 Cells FGFR3 (IC50 nM), FGFR3-BAIAP2L1 Ba/F3 cells, 48 hours, Cell Titer Glo 2.0
FGFR3-BAIAP2L1 Ba/F3 cells, sequence (P22607 23-806 limits assumed, change not shown): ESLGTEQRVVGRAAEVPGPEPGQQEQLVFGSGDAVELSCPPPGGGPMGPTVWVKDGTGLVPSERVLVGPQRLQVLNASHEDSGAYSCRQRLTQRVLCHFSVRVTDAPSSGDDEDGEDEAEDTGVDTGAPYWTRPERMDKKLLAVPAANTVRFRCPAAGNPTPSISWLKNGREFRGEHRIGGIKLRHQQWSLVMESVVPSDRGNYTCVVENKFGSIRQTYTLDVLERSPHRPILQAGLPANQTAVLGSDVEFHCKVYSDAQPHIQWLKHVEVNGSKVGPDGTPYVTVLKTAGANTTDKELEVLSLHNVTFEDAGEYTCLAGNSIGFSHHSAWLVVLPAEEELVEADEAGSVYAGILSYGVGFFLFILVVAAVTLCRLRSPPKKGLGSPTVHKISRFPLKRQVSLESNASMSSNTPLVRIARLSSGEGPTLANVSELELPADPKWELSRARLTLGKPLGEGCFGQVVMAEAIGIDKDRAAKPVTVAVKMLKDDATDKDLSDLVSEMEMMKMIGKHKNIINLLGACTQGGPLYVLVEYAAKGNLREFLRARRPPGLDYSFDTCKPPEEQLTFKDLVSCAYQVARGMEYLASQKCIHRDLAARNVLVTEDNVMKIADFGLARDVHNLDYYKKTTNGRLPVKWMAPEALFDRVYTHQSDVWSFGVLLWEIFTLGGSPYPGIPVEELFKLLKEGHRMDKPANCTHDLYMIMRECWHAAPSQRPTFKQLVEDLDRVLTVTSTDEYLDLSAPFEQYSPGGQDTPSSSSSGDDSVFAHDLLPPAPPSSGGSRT
Procedure, shortened: (§4)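 Viability read as ATP luminescence (CellTiter-Glo 2.0) after 48 h compound exposure, normalized to DMSO-treated cells and fitted with a 4-parameter curve for IC50. Cells: Ba/F3 dependent on FGFR1-BCR or FGFR3-BAIAP2L1 fusion kinase; top dose 30 μM, 10-fold steps, 9 doses in triplicate.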

FGFR1-BCR Ba/F3 cells = FGFR1-BCR Ba/F3 cells (Homo sapiens, UniProt P11362); test: Ba/F3 cell viability assay (CellTiter-Glo 2.0), FGFR1-BCR Ba/F3; format: cell-based; conditions: read-out: Ba/F3 Cells FGFR1 (IC50 nM), 48 hours, Cell Titer Glo 2.0
FGFR1-BCR Ba/F3 cells, sequence (P11362 22-822 limits assumed, change not shown): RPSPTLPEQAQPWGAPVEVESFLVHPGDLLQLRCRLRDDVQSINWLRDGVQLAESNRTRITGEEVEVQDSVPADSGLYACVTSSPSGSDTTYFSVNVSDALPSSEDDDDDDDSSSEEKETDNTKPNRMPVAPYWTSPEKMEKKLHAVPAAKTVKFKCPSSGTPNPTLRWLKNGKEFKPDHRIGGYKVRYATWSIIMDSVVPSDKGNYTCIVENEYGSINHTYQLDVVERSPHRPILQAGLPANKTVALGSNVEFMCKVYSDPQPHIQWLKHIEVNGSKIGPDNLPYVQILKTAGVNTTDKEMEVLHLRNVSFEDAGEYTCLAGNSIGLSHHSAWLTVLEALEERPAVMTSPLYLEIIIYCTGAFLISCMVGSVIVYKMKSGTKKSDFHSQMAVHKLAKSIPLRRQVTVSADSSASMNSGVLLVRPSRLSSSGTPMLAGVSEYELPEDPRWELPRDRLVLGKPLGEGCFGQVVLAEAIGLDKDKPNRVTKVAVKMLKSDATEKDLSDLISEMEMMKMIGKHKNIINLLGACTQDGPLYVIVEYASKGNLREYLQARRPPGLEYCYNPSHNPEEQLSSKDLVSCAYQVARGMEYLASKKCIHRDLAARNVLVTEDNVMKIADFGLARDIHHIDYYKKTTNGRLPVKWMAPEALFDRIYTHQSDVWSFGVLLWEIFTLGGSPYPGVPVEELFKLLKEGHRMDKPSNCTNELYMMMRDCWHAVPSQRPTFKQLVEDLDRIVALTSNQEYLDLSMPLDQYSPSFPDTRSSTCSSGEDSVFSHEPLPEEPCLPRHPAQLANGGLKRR
Procedure, shortened: as §4

FGFR3 = FGFR3 (Homo sapiens (Human), UniProt P22607); test: Kinase assay, binding constants (Kd), kinase-tagged T7 phage, qPCR
FGFR3, sequence (P22607 23-806): as the sequence (P22607 23-806 limits assumed, change not shown) above
Procedure, shortened: (§5)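 Using T7 phage lysates from BL21-derived E. coli, compounds at 0.9% final DMSO competed for kinase binding to ligand-bearing magnetic beads. After elution, qPCR measured remaining kinase, and Kds were fitted by non-linear least squares with the Hill slope fixed at −1.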

FGFR1 = FGFR1 (Homo sapiens (Human), UniProt P11362); test: as above
FGFR1, sequence (P11362 22-822): as the sequence (P11362 22-822 limits assumed, change not shown) above
Procedure, shortened: as §5

FGFR2 = FGFR2 (Homo sapiens (Human), UniProt P21802); test: as above
FGFR2, sequence (P21802 22-821): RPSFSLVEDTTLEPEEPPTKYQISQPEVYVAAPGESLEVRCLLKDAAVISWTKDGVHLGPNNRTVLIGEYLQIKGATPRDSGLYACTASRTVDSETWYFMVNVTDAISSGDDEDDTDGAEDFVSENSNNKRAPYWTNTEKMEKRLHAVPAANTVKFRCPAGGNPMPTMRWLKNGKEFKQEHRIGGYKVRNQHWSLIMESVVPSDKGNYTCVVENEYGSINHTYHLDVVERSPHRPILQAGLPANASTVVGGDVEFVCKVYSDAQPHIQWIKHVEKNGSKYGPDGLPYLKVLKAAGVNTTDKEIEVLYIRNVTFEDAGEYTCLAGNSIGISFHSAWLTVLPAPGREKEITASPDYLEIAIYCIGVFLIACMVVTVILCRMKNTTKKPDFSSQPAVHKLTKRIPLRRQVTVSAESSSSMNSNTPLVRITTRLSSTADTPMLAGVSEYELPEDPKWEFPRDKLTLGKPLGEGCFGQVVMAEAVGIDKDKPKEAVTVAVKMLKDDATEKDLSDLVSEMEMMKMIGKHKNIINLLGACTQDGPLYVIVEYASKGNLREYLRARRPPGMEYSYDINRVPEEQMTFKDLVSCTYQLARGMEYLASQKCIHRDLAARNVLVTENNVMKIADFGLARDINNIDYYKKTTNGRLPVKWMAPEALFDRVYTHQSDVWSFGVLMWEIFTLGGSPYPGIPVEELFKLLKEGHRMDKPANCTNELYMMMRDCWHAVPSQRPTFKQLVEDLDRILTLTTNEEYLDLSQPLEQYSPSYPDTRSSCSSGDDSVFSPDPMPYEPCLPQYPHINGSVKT
Procedure, shortened: as §5

FGFR4 = FGFR4 (Homo sapiens (Human), UniProt P22455); test: as above
FGFR4, sequence (P22455 22-802): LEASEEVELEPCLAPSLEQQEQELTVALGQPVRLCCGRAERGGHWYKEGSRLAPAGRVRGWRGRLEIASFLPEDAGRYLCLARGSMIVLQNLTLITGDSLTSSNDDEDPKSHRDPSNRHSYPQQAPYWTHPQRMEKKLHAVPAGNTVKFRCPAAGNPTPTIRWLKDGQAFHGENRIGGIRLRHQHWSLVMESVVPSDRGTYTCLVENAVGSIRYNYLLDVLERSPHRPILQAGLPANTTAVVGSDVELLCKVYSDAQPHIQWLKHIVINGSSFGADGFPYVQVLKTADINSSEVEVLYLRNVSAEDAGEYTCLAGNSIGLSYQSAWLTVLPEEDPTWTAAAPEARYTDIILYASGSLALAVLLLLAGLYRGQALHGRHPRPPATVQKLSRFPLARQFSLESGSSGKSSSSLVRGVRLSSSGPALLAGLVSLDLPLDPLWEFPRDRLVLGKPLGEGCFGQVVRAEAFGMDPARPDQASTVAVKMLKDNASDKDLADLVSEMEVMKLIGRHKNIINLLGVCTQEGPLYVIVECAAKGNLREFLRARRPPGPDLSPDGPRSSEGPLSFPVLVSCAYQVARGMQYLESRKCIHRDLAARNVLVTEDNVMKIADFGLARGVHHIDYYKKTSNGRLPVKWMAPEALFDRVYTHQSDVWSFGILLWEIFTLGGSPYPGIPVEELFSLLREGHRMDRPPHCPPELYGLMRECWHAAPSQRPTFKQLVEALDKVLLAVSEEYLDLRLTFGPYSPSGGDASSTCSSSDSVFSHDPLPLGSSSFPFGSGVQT
Procedure, shortened: as §5

FGFR3 (V555M) = FGFR3 (V555M) (Homo sapiens (Human), UniProt P22607, V555M); test: as above; conditions: V555M mutant
FGFR3 (V555M), sequence (P22607 23-806 V555M): as the sequence (P22607 23-806 limits assumed, change not shown) above, with V533M counted along it
Procedure, shortened: as §5

| Structure (SMILES) | IC50 [1] [nM] | IC50 [2] [nM] | Ba/F3 FGFR1/FGFR3 Selectivity [3] | IC50 [3] [nM] | IC50 (FGFR1-BCR Ba/F3 cells) [nM] | Kd (FGFR3) [nM] | Kd (FGFR1) [nM] | Kd (FGFR2) [nM] | Kd (FGFR4) [nM] | Kd (FGFR3 (V555M)) [nM] | IC50 ([3]; given as a number) [nM] |
| --- | --- | --- | --- | --- | --- | --- | --- | --- | --- | --- | --- |
| COC(=O)N1CCC2(CC1)CN(c1ccc(-c3n[nH]c4ccc(O[C@H](C)c5c(Cl)cncc5Cl)cc34)cn1)C2 [Example 125, methyl 2-[5-[5-[(1R)-1-(3,5-dichloro-4-pyridyl)ethoxy]-1H-indazol-3-yl]-2-pyridyl]-2,7-diazaspiro[3.5]nonane-7-carboxylate] | 1 to 20 | 100 to 300 | 16 | 1 to 20 | 100 to 300 | 1 to 20 | 20 to 100 | 20 to 100 | 1 to 20 | 1 to 20 |  |
| Cc1ncc(Cl)c([C@@H](C)Oc2ccc3[nH]nc(-c4cnn(C5CCN(C6COC6)CC5)c4)c3c2)c1Cl [Example 94, 5-[(1R)-1-(3,5-dichloro-2-methyl-4-pyridyl)ethoxy]-3-[1-[1-(oxetan-3-yl)-4-piperidyl]pyrazol-4-yl]-1H-indazole] | 1 to 20 | 100 to 300 | 11 |  | 100 to 300 | 1 to 20 | 20 to 100 | 1 to 20 | 20 to 100 | 1 to 20 | 15 |
| C[C@@H](Oc1ccc2[nH]nc(-c3ccc(N4CC5(CCN(S(C)(=O)=O)C5)C4)nc3)c2c1)c1c(Cl)cncc1Cl [Example 115, 5-[(1R)-1-(3,5-dichloro-4-pyridyl)ethoxy]-3-[6-(7-methylsulfonyl-2,7-diazaspiro[3.4]octan-2-yl)-3-pyridyl]-1H-indazole] | 1 to 20 | 100 to 300 | 14 | 1 to 20 | 20 to 100 | 1 to 20 | 1 to 20 | 1 to 20 | 1 to 20 | 1 to 20 |  |
| C[C@@H](Oc1ccc2[nH]nc(-c3ccc(N4CC5(CCN5C)C4)nc3)c2c1)c1c(Cl)cncc1Cl [Example 96, 5-[(1R)-1-(3,5-dichloro-4-pyridyl)ethoxy]-3-[6-(1-methyl-1,6-diazaspiro[3.3]heptan-6-yl)-3-pyridyl]-1H-indazole] | 1 to 20 | 20 to 100 | 13 | 1 to 20 | 20 to 100 | 1 to 20 | 1 to 20 | 1 to 20 | 1 to 20 | 1 to 20 |  |
| C[C@@H](Oc1ccc2[nH]nc(-c3cnn([C@H]4CCNC4)c3)c2c1)c1c(Cl)cncc1Cl [Example 88, 5-[(1R)-1-(3,5-dichloro-4-pyridyl)ethoxy]-3-[1-[(3S)-pyrrolidin-3-yl]pyrazol-4-yl]-1H-indazole] | 20 to 100 | 100 to 300 | 20 | 1 to 20 | 100 to 300 | 1 to 20 | 1 to 20 | 1 to 20 | 20 to 100 | 1 to 20 |  |
| CC(Oc1ccc2[nH]nc(-c3ccc(N4CC5(C4)CN(S(C)(=O)=O)C5)nc3)c2c1)c1c(Cl)ccnc1Cl (stereo not drawn) [Example 109, 5-[1-(2,4-dichloro-3-pyridyl)ethoxy]-3-[6-(2-methylsulfonyl-2,6-diazaspiro[3.3]heptan-6-yl)-3-pyridyl]-1H-indazole] | 20 to 100 | 100 to 300 | 12 | 1 to 20 | 100 to 300 | 1 to 20 | 20 to 100 | 1 to 20 | 1 to 20 | 1 to 20 |  |
